Values of other authors in patent publication US20110015074A1, “STABILIZED HERBICIDAL FORMULATIONS AND METHODS OF USE” (priority 2009, published 2011).

Details: sunlight (UV), after the end of the second year of storage period

CCSC(C)CC1CC(=O)C(/C(CC)=N/OC/C=C/Cl)=C(O)C1 (racemic) [clethodim (technical), (±)-2-[(E)-1-[(E)-3-Chloroallyloxyimino]propyl]-5-[2-(ethylthio)propyl]-3-hydroxycyclohex-2-enone]
loss or degradation of clethodim: 42.33 % active ingredient
